In US8785147B2, “L-threonine analysis method and L-threonine dehydrogenase” (Toyama Prefecture, priority 2010, dated 2014):

Legend:
[1] = tested on: TDH derived from Cupriavidus necator NBRC 102504 (SEQ ID NO: 1) (CnTDH); assay: Substrate specificity of TDH, standard assay; assay type: biochemical; details: for Activity of the present enzyme on the substrate (in words): substrate 10 mM
Description: L-threonine oxidation activity was determined by measuring coenzyme NAD^+ reduction at 30° C. and 340 nm. The reaction composition consisted of a total volume of 1 mL and contained L-threonine (final concentration 10 mM), NAD^+ (final concentration 2.5 mM), and glycine-KCl—KOH buffer (100 mM, pH 10.0). The measurement of activity began with the addition of the enzyme. One unit (U) of enzymatic activity was defined as the amount of enzyme producing 1 μmol of NADH per minute under standard conditions.
TDH was examined using substrates in the form of various L-amino acids, amino alcohols, and alcohols. […]

[2] = tested on: CsTDH: TDH from Clostridium sticklandii; details: substrate specificity; L-threonine = 100; cited from earlier work
[3] = biological target: EcTDH: TDH from Escherichia coli K-12 (Escherichia coli, UniProt P07913); details: substrate specificity; L-threonine = 100; cited from earlier work
[4] = tested on: GdTDH: TDH from chicken liver (Gallus domesticus); details: substrate specificity; L-threonine = 100; cited from earlier work
[5] = tested on: CyTDH: TDH from Cytophaga sp. KUC-1; details: substrate specificity; L-threonine = 100; cited from earlier work
[6] = biological target: PfTDH: TDH from Pyrococcus furiosus (Pyrococcus furiosus, UniProt Q8U259); details: substrate specificity; L-threonine = 100; cited from earlier work
[7] = biological target: TkTDH (Thermococcus kodakarensis, UniProt Q5JI69); details: substrate specificity; L-threonine = 100; cited from earlier work
[8] = tested on: StTDH: TDH from Streptomyces sp. 139; details: substrate specificity; L-threonine = 100; cited from earlier work
[9] = tested on: AgTDH: TDH from Arthrobacter globiformis; details: substrate specificity; L-threonine = 100; cited from earlier work
[10] = substrate concentration 10 mM, standard assay conditions, L-threonine = 100

Chain of EcTDH: TDH from Escherichia coli K-12 (P07913 whole entry): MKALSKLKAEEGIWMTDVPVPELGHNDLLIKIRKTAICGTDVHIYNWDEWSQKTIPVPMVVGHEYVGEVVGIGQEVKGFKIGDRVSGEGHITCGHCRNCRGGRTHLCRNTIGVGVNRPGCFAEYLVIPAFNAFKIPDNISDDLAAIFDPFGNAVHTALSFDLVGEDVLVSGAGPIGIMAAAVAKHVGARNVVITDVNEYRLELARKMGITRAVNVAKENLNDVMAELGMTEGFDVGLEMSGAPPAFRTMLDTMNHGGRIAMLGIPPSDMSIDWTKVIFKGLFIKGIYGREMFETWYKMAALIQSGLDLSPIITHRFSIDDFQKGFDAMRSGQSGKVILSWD
Chain of PfTDH: TDH from Pyrococcus furiosus (Q8U259 whole entry): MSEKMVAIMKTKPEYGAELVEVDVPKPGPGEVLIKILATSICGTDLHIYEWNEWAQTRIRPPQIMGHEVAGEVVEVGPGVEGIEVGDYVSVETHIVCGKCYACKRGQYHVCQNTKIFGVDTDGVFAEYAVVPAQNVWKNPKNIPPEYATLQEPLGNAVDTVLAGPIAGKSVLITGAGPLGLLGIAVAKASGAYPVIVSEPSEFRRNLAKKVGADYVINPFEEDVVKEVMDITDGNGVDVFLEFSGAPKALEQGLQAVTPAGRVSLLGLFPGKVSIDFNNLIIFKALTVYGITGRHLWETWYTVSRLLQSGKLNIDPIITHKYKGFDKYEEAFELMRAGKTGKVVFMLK
Chain of TkTDH (Q5JI69 whole entry): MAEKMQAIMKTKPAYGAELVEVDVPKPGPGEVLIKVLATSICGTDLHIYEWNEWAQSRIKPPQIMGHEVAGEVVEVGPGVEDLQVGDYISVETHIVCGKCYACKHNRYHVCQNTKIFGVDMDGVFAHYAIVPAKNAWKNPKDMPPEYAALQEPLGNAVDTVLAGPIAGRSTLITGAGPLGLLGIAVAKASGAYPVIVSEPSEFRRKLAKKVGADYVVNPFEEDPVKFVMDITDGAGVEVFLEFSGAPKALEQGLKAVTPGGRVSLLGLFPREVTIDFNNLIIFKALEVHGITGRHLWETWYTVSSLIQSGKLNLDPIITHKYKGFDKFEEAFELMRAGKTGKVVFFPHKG

SMILES | Relative activity (%) CnTDH [1, 10] | Relative activity (%) CsTDH [2] | Relative activity (%) EcTDH [3] | Relative activity (%) GdTDH [4] | Relative activity (%) CyTDH [5] | Relative activity (%) PfTDH [6] | Activity of the present enzyme on the substrate (in words) ([1]; standard assay conditions) | Relative activity (%) CnTDH ([1]; substrate 100 mM) | Relative activity (%) TkTDH [7] | Relative activity (%) StTDH [8] | Relative activity (%) AgTDH [9]
C[C@H](O)[C@H](N)C(=O)O (racemic) [DL-allothreonine] | 0% | 0% | 95.0% | 0% | – | – | – | – | – | – | –
NC(C(=O)O)C(O)c1ccccc1 (racemic) [DL-threo-3-phenylserine] | 0% | 0% | 3% | – | 0% | – | – | – | – | – | –
CCC(O)C(N)C(=O)O (racemic) [DL-α-amino-β-hydroxyvaleric acid] | – | 20% | 71% | 0% | 31% | – | – | – | – | – | –
C[C@H](O)[C@@H](N)C(=O)O [D-threonine] | 0% | 0% | 63.7% | 0% | 0% | 5% | no activity was observed | – | – | – | –
N[C@@H](CO)C(=O)O [L-serine] | 0% | 0% | 4.0% | 0% | 0% | 15% | – | 0% | 13% | – | –
COC(=O)[C@@H](N)[C@@H](C)O [L-threonine methyl ester] | 0% | 0% | 27% | – | – | – | – | – | – | – | –
C[C@@H](O)[C@H](N)C(=O)O [L-threonine] | 100% | 100% | 100.0% | 100% | 100% | 100% | exhibited the activity for only L-threonine | – | 100% | 100% | 100%
